Laboratory results: patent EP0535241A1, “NOVEL LEUCINE AMINOPEPTIDASE” (SUNTORY LIMITED, priority 1991, dated 1992)

Target: T1, leucine aminopeptidase of human placenta origin (PLAP), purified from human retroplacental sera, containing SEQ ID NOs: 1, 2, 3 and 4 (Homo sapiens, UniProt Q9UIQ6)
T1 construct: PLAP was purified by fractionating 900 ml of retroplacental sera by ammonium sulfate fractionation; from tissue; host or cells: human retroplacental sera
Test: PLAP enzyme assay with L-leucyl-P-nitroanilide as substrate (Lineweaver-Burk plot)
Format: biochemical
Method: An assay of PLAP was carried out according to a method of Kurauchi et al. (Kurauchi, O. et al. Enzyme, 35, p197-205, 1986) using L-leucyl-P-nitroanilide as a substrate. Namely, a substrate adjusted to 1.6 mM of a final concentration was added to a 20 mM Tris-HCl buffer (pH 7.2) (1.0 ml) in the presence of a 20 mM L-methionine, and the mixture was incubated at 37°C for 10 minutes. After finishing the reaction, 3.0 ml of a 1M acetate buffer (pH 4.2) was added to terminate the reaction, and the amount of released P-nitroanilide was measured by absorption of 405 nm. One unit of the enzyme is defined as an activity of the enzyme that releases 1 µ mole of the P-nitroanilide for one minute.

[1] = purified PLAP, calculated according to Lineweaver-Burk plot, 20 mM Tris-HCl buffer (pH 7.2), 37°C

T1 sequence (Q9UIQ6 155-1025 limits assumed): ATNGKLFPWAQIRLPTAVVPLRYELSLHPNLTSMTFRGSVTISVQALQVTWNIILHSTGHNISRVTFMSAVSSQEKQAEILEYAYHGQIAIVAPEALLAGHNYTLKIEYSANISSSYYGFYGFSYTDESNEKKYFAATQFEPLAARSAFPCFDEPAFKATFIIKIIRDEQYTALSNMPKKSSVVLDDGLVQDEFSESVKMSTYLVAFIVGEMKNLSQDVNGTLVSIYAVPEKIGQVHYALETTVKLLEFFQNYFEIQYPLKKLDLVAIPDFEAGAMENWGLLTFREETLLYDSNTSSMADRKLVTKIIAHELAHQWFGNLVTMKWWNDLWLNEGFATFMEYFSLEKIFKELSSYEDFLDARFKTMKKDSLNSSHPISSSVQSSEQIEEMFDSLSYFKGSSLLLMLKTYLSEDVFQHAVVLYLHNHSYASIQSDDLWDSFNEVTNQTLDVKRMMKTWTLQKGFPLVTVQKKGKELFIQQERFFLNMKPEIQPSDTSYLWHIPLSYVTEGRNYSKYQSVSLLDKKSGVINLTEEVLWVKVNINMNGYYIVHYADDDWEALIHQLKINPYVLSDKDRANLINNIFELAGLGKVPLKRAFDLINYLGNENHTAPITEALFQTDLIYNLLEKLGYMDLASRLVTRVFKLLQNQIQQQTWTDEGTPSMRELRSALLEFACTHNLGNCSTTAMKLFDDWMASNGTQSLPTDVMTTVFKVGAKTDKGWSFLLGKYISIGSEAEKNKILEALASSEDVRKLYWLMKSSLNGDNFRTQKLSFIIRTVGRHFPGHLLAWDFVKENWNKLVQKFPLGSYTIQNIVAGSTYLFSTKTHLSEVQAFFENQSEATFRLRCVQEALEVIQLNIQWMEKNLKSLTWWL

Km value for degradation of L-Leucyl-P-nitroanilide [1] [mM] | Vmax for degradation of L-Leucyl-P-nitroanilide [1] [µmol/min/g] | Compound | inhibition of L-leucyl-P-nitroanilide degrading activity by L-methionine (assay carried out in the presence of 20 mM L-methionine, substrate 1.6 mM)
4.17 | 108 | CC(C)C[C@H](N)C(=O)Nc1ccc([N+](=O)[O-])cc1 [L-Leucyl-P-nitroanilide] | 
 |  | CSCC[C@H](N)C(=O)O [L-methionine] | not inhibited
